Test results taken from EP4703354A1, “COMPOUND AS CCR6 ANTAGONIST, AND PHARMACEUTICAL COMPOSITION AND USE THEREOF” (Wuhan Createrna Science and Technology Co.,Ltd., priority 2023, dated 2024).

Experiments:
[1] = in vitro liver microsome metabolic stability, beagle dog; type: in vitro ADME; conditions: Beagle dog liver microsomes, 37°C
Description: (§1) Preparation of working solutions for test compounds and standards: An appropriate amount of the compound was accurately weighed and dissolved in a corresponding volume of suitable solvent to prepare 1 mM stock solutions of the test compounds and standards. The stock solutions were then diluted with appropriate solvent to obtain 100 µM working solutions of the test compounds, ensuring that the DMSO content in the working solutions remained below 10%.
(§2) The internal standard compound testosterone (or tolbutamide) and its corresponding solvent, internal standard concentration (200 ng/mL), were selected based on the properties of the test compound.
(§3) • Solution A: 0.1 mol/L K2HPO4 (2.28 g K2HPO4·3H2O was dissolved in 100 mL of double-distilled water); • Solution B: 0.1 mol/L KH2PO4 (1.36 g KH2PO4 was dissolved in 100 mL of double-distilled water); • 80.2 mL of Solution A and 19.8 mL of Solution B were mixed thoroughly, and the pH was adjusted to 7.4.
(§4) 37.5 mg of glycine was weighed, dissolved in 100 mL of ultrapure water, and adjusted to pH 8.0 with NaOH.
(§5) 1.25 mg of glucose-6-phosphate dehydrogenase (400 U/mg) was weighed (the specific amount weighed was calculated based on the activity of the purchased glucose-6-phosphate dehydrogenase), dissolved in 1 mL of glycine buffer to a concentration of 500 U/mL, aliquoted into 20 µL per tube, and stored at -20°C for future use.
(§6) 7.83 mg of NADP, 0.06 mL of D-glucose-6-phosphate (260 mg/mL), and 10.17 mg of MgCl2·6H2O were precisely weighed.
(§7) The mixture was dissolved in 1 mL of pure water. The cofactor ratio composition: NADP 10 mM, D-glucose-6-phosphate 60 mM, MgCl2·6H2O 50 mM.
(§8) The reaction system (taking a 500 µL system as an example) was composed of the following solution ratios: 416.5 µL phosphate buffer, 5 µL compound working solution, 25 µL liver microsomes, 3.5 µL glucose-6-phosphate dehydrogenase, and 50 µL cofactor solution. The total incubation volume could be adjusted according to experimental requirements.
(§9) 416.5 µL of phosphate buffer was taken, 25 µL of liver microsomes, 3.5 µL of glucose-6-phosphate dehydrogenase, and 50 µL of cofactor solution were added, vortexed twice to mix, and preincubated in a 37°C water bath for 5 minutes. Then, 5 µL of the test compound working solution was added, vortexed twice to mix, each time for 2-3 seconds, and placed in a 37°C water bath to initiate the reaction, with two parallel samples set. At 0.5 min, 1 min, 2 min, 5 min, 15 min, and 30 min after the reaction, 50 µL of the mixture was taken and added to centrifuge tubes containing 200 µL of 0°C pre-cooled internal standard working solution to terminate the reaction, vortexed for 1 minute to mix, and centrifuged at 13,000 rpm for 10 minutes in a 4°C pre-cooled high-speed centrifuge. The supernatant was collected for analysis. After the compound was added and vortex-mixed, 50 µL of the mixture was rapidly transferred to a centrifuge tube containing 200 µL of a pre-cooled (0°C) internal standard working solution to terminate the reaction, vortex-mixed for 1 minute, and used as the relative zero-point sample (relative to the standard group). The sample was then placed into a 37°C water bath to initiate the reaction, and timing was started.
(§10) The sample analysis of the test compound was performed using the liquid chromatography-tandem mass spectrometry (LCMS/MS) method. The semi-quantitative determination was performed using the ratio of the analyte peak area to the internal standard peak area. The retention times of the analyte and internal standard, chromatogram acquisition, and chromatogram integration were processed using Analyst software.
(§11) The in vitro elimination rate constant k of the test compound and the control compound was determined by converting the ratio of the peak area of the test compound to the internal standard into the remaining rate, and T1/2 was then calculated according to the following formula. T1/2 = (Ln2)/(k) = (0.693)/(k) [formula] Table 3. […]

[2] = in vitro liver microsome metabolic stability, rat; type: in vitro ADME; conditions: Rat liver microsomes, 37°C
Description: as §1, §2, §3, §4, §5, §6, §7, §8, §9, §10, §11

[3] = in vitro liver microsome metabolic stability, human; type: in vitro ADME; conditions: Human liver microsomes, 37°C
Description: as §1, §2, §3, §4, §5, §6, §7, §8, §9, §10, §11

[4] = molecular target: T1, human CCR6 (Homo sapiens, UniProt P51684); test: human CCR6 calcium flux activity (FLIPR, HEK293 cells stably expressing human CCR6, CCL20 stimulation); type: cell-based; conditions: HEK293 cells stably expressing human CCR6, EC80 human MIP-3 alpha/CCL20; read-out: CCR6 inhibitory activity, IC50
T1 construct: expressed in transfected cells; host or cells: HEK293
T1 sequence (P51684 1-374): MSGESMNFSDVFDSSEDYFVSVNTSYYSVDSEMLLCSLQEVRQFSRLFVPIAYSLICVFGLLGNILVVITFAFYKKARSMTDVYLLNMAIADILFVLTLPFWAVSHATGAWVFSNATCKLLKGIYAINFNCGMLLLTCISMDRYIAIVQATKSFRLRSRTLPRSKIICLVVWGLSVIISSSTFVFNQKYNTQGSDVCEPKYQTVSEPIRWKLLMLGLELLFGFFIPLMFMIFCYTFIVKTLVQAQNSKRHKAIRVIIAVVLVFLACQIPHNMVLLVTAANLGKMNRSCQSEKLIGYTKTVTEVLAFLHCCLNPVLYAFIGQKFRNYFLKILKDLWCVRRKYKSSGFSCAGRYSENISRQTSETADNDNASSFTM
Description: The activity of the compounds was evaluated using HEK293 cells stably expressing human CCR6 via the FLIPR platform. A 384-well black cell culture plate (Greiner, 781946) was used, with a seeding density of 20,000 cells/well, and incubated overnight at 37°C in a 5% CO2 incubator. The culture medium in the cell plate wells was removed, and 20 µL of Fluo-4 Direct™ Calcium Assay Buffer (Invitrogen, F10471, Component C), 20 µL of 2× Fluo-4 Direct™ Calcium Assay Reagent (Invitrogen, F10471, Component A) working solution, and 10 µL of 6× test compound working solution were sequentially added to each well. The cell plate was incubated in a 37 °C, 5% CO2 incubator for 50 min, followed by a 10 min incubation at room temperature. Additionally, a 6×EC80 human MIP-3 alpha/CCL20 (MCE, HY-P7262) working solution was prepared. After the incubation was completed, 10 µL/well of the 6×EC80 human MIP-3 alpha/CCL20 working solution was transferred to the cell plate using a FLIPR instrument, and the fluorescence signal changes at an excitation wavelength of 494 nm and an emission wavelength of 516 nm were recorded over 90 seconds. The difference between the maximum fluorescence signal (RFUMax) and the minimum fluorescence signal (RFUMin) was used as the output signal. The compound inhibition rate and the log value of the compound concentration were calculated, and a four-parameter fitting analysis was performed using GraphPad Prism 8 software to obtain the IC50 value of the test compound.

[5] = in vivo pharmacokinetic study in SD rats; conditions: male, rat, plasma; for AUC(0-t) / Cmax / half-life: 1 mg/kg
Description: 2.2.1 Rats: SD rats, SPF grade, 6 rats per compound, male, body weight range 180-200 g.
2.2.2 Housing conditions: The animals were housed in an SPF-grade animal facility with free access to food and water, three per cage, under a 12/12-hour light/dark cycle (7:00 am/7:00 pm), at a temperature of 23 ± 3°C.
2.2.3 Drug preparation: The compound was precisely weighed, mixed with the required volume of 1% Tween 80, vortexed for 2 min, and then sonicated for 5 min until no visible particles remained. The mixture was subsequently stirred on a magnetic stirrer for 20 min, and the middle layer of the drug solution was collected for administration. For the IV group, the compound was accurately weighed, dissolved in the required volume of 50% PEG400, sonicated for 10 min, and vortexed until clear before administration.
The rats were randomly divided into 2 groups based on body weight, with 3 rats per compound per group. Group 1 was administered a single oral gavage dose (fasted), and Group 2 was administered a single tail vein bolus injection. Blood collection time points: for the po group, blood was collected at 0.167 h, 0.5 h, 1 h, 2 h, 3 h, 4 h, 6 h, and 8 h; for the iv group, blood was collected at 0.033 h, 0.167 h, 0.5 h, 1 h, 2 h, 4 h, 6 h, and 8 h.
After administration to the rats, blood was collected from the orbital venous plexus according to the sampling time points. Approximately 0.2-0.3 mL of blood was collected at each time point into anticoagulant EP tubes (containing 4 µL of EDTA-K2, 375 mg/mL, dried at 50°C). The tubes were slowly inverted up and down three times and stored in an ice box (for no more than 30 minutes). Centrifugation was performed at 4°C at 3000 × g for 10 minutes, and the supernatant was transferred to labeled EP tubes for bioanalytical testing. If testing could not be performed on the same day, the samples were stored at -80°C until analysis (care was taken to avoid multiple freeze/thaw cycles).
The data were analyzed using WinNonlin via a non-compartmental model to obtain PK parameters (Cmax, AUC0-last, AUCinf, T1/2, etc., selected based on different routes of administration). For specific data, please refer to Table 2. Table 2. PK experimental results of compounds in SD rats

SMILES | Liver microsome T1-2 (min) Beagle dog [1] [min] | Liver microsome T1-2 (min) Rat [2] [min] | Liver microsome T1-2 (min) Human [3] [min] | also measured
Cc1cccnc1[C@H](Nc1c(Nc2ccnc(C(=O)N(C)C)c2O)c(=O)c1=O)[C@@]1(C)CC(F)(F)CO1 (single isomer, unassigned) [128A] | 160.31 | 78.14 | 310.89 | –
Cc1cccnc1C(Nc1c(Nc2ccc(F)c(C(=O)N(C)C)c2O)c(=O)c1=O)[C@]1(C)CC(F)(F)CO1 (stereo partly drawn) [087A, 3-((2-((((S)-4,4-difluoro-2-methyltetrahydrofuran-2-yl)(3-methylpyridin-2-yl)methyl)amino)-3,4-dioxocyclobut-1-en-1-yl)amino)-6-fluoro-2-hydroxy-N,N-dimethylbenzamide] | 431.98 | 120.46 | 511.03 | –
Cc1cccnc1C(Nc1c(Nc2ccc(F)c(C(=O)N(C)C)c2O)c(=O)c1=O)[C@@]1(C)CC(F)(F)CO1 (stereo partly drawn) [087B, 3-((2-((((R)-4,4-difluoro-2-methyltetrahydrofuran-2-yl)(3-methylpyridin-2-yl)methyl)amino)-3,4-dioxocyclobut-1-en-1-yl)amino)-6-fluoro-2-hydroxy-N,N-dimethylbenzamide] | 567.51 | 571.31 | 369.68 | –
CN(CC(F)(F)F)C(=O)c1nccc(Nc2c(N[C@@H](c3ccc(F)cn3)C3(C)CCCC3)c(=O)c2=O)c1O [compound 070, (R)-4-((2-(((5-fluoropyridin-2-yl)(1-methylcyclopentyl)methyl)amino)-3,4-dioxocyclobut-1-en-1-yl)amino)-3-hydroxy-N-methyl-N-(2,2,2-trifluoroethyl)picolinamide] | 37.22 | 34.22 | 201.75 | –
CN(CC(F)F)C(=O)c1nccc(Nc2c(N[C@@H](c3ccc(F)cn3)C3(C)CCCC3)c(=O)c2=O)c1O [compound 071, (R)-N-(2,2-difluoroethyl)-4-((2-(((5-fluoropyridin-2-yl)(1-methylcyclopentyl)methyl)amino)-3,4-dioxocyclobut-1-en-1-yl)amino)-3-hydroxy-N-methylpicolinamide] | 54.52 | 52.81 | 262.47 | –
CC#CC(Nc1c(Nc2ccnc(C(=O)N(C)C)c2O)c(=O)c1=O)C1(C)CC(F)(F)CO1 (centres unmarked) [compound 112, 4-((2-((1-(4,4-difluoro-2-methyltetrahydrofuran-2-yl)but-2-yn-1-yl)amino)-3,4-dioxocyclobut-1-en-1-yl)amino)-3-hydroxy-N,N-dimethylpicolinamide] | – | 560.45 | – | IC50 [4]: 0.165 µM
Cc1nccnc1[C@H](Nc1c(Nc2ccc(F)c(C(=O)N(C)C)c2O)c(=O)c1=O)C1(C)CCCC1 [compound 130, (R)-6-fluoro-2-hydroxy-N,N-dimethyl-3-((2-(((1-methylcyclopentyl)(3-methylpyrazin-2-yl)methyl)amino)-3,4-dioxocyclobut-1-en-1-yl)amino)benzamide] | 2270.89 | 109.49 | – | bioavailability ([5]; 1 mg/kg PO vs 1 mg/kg IV, read-out: Oral bioavailability F (%)): 24%; AUC(0-t) ([5]; IV): 0.752 µg·h/mL; Cmax ([5]; IV): 5.53 µg/mL; half-life ([5]; IV): 0.22 h; AUC(0-t) ([5]; PO): 0.181 µg·h/mL; Cmax ([5]; PO): 0.158 µg/mL; half-life ([5]; PO): 2.79 h
